System: SK-MEL-28 cells (B-RAF V600E mutated)
Test: Inhibition of the proliferation of cultivated human melanoma cells (SK-MEL-28), AlamarBlue
Format: cell-based
Settings: SK-MEL-28 melanoma cells, 72 h incubation
Procedure: Measurement of the Inhibition of the Proliferation of Cultivated Human Melanoma Cells (SK-MEL-28, B-RAF^V600E mutated)
For measuring the proliferation of cultivated human tumour cells, cells of the melanoma cell line SK-MEL-28 [from American Type Culture Collection (ATCC)] are cultivated in MEM medium, supplemented with 10% foetal calf serum, 2% sodium bicarbonate, 1 mM sodium pyruvate, 1% non-essential amino acids (e.g. from Cambrex, # BE13-114E) and 2 mM glutamine. SK-MEL-28 cells are placed in 96-well flat bottomed dishes in a density of 2500 cells per well in supplemented MEM medium (see above) and incubated overnight in an incubator (at 37° C. and 5% CO2). The active substances are added to the cells in different concentrations, so that a concentration range of 50 μM to 3.2 nM is covered. If necessary the initial concentration of 50 μM is changed to 10 μM or 2 μM and further dilution is carried out accordingly (up to 0.6 nM or 0.12 nM). After an incubation period of a further 72 h 20 μL AlamarBlue reagent (Serotec Ltd., # BUF012B) are added to each well and the cells are incubated for a further 3-6 h. The colour change of the AlamarBlue reagent is determined in a fluorescence spectrophotometer (e.g. Gemini, Molecular Devices). EC50 values are calculated using a software program (GraphPadPrizm).

Row | Structure (SMILES) | EC50 (Homo sapiens, SK-MEL-28, 72 h) [nM] | EC50 [nM]
1 | CCCS(=O)(=O)Nc1ccc(F)c(Nc2ncnc3cnc(N4CCN(CCN5CCOCC5)CC4)nc23)c1F [Example I-9] | 1140 | –
2 | CCCS(=O)(=O)Nc1ccc(F)c(Nc2ncnc3cnc(-n4cc(C)nc4C)nc23)c1F [Example I-26] | 212 | –
3 | CCCS(=O)(=O)Nc1ccc(F)c(Nc2ncnc3cnc(Nc4ccncc4)nc23)c1F [Example I-28] | 424 | –
4 | CCCS(=O)(=O)Nc1ccc(F)c(Nc2ncnc3cnc(N4CCN(C)CC4)nc23)c1F [Example I-4] | 1480 | –
5 | CCCS(=O)(=O)Nc1ccc(F)c(Nc2ncnc3cnc(N4CCC(C(C)N(C)C)CC4)nc23)c1F (stereo not drawn) [Example I-20] | 1590 | –
6 | CCCS(=O)(=O)Nc1ccc(F)c(Nc2ncnc3cnc(N[C@H]4CCOC4)nc23)c1F [Example I-22] | 919 | –
7 | CCCS(=O)(=O)Nc1ccc(F)c(Nc2ncnc3cnc(N4CCC(CN(CC)CC)CC4)nc23)c1F [Example I-14] | 1670 | –
8 | CCCS(=O)(=O)Nc1ccc(F)c(Nc2ncnc3cnc(NCCOC)nc23)c1F [Example I-33] | 1800 | –
9 | CCCS(=O)(=O)Nc1ccc(F)c(Nc2ncnc3cnc(NC4CCN(CCOC)CC4)nc23)c1F [Example I-17] | 1600 | –
10 | CCCS(=O)(=O)Nc1ccc(F)c(Nc2ncnc3cnc(N(C)C)nc23)c1F [Example I-23] | 1630 | –
11 | CCCS(=O)(=O)Nc1ccc(F)c(Nc2ncnc3cnc(N4CC[C@H](F)C4)nc23)c1F [Example I-8] | – | 522
12 | CCCS(=O)(=O)Nc1ccc(F)c(Nc2ncnc3cnc(-n4cnc(C)c4C)nc23)c1F [Example I-25] | 143 | –
13 | CCCS(=O)(=O)Nc1ccc(F)c(Nc2ncnc3cnc(N4CC[C@H](F)C4)nc23)c1F [Example I-7] | – | 176
14 | CCCS(=O)(=O)Nc1ccc(F)c(Nc2ncnc3cnc(NC4CCOC4)nc23)c1F (stereo not drawn) [Example I-5] | 668 | –
15 | CCCS(=O)(=O)Nc1ccc(F)c(Nc2ncnc3cnc(-n4ccnc4C)nc23)c1F [Example I-32] | 297 | –
16 | CCCS(=O)(=O)Nc1ccc(F)c(Nc2ncnc3cnc(-n4ccnc4)nc23)c1F [Example I-30] | 504 | –
17 | CCCS(=O)(=O)Nc1ccc(F)c(Nc2ncnc3cnc(N4CCC(CN5CCCC5)CC4)nc23)c1F [Example I-12] | 952 | –

Row | Structure (SMILES) | EC50 (Homo sapiens, SK-MEL-28, 72 h) [nM] | EC50 [nM]
18 | CCCS(=O)(=O)Nc1ccc(F)c(Nc2ncnc3cnc(N4CCN(CCN(C)C)CC4)nc23)c1F [Example I-15] | 781 | –
19 | CCCS(=O)(=O)Nc1ccc(F)c(Nc2ncnc3cnc(N4CCC(CN(C)C)CC4)nc23)c1F [Example I-19] | 1250 | –
20 | CCCS(=O)(=O)Nc1ccc(F)c(Nc2ncnc3cnc(N4CCOCC4)nc23)c1F [Example I-2] | 514 | –
21 | CCCS(=O)(=O)Nc1ccc(F)c(Nc2ncnc3cnc(-n4cncn4)nc23)c1F [Example I-24] | 1500 | –
22 | CCCS(=O)(=O)Nc1ccc(F)c(Nc2ncnc3cnc(N4CCN(CCOC)CC4)nc23)c1F [Example I-3] | 1190 | –
23 | CCCS(=O)(=O)Nc1ccc(F)c(Nc2ncnc3cnc(N4C[C@@H](C)O[C@@H](C)C4)nc23)c1F [Example I-18] | 774 | –
24 | CCCS(=O)(=O)Nc1ccc(F)c(Nc2ncnc3cnc(-n4ccc(C)n4)nc23)c1F [Example I-27] | 807 | –
25 | CCCS(=O)(=O)Nc1ccc(F)c(Nc2ncnc3cnc(Nc4ccc(N5CCN(C)CC5)cc4)nc23)c1F [Example I-29] | 526 | –
26 | CCCS(=O)(=O)Nc1ccc(F)c(Nc2ncnc3cnc(N4CCC(F)(F)C4)nc23)c1F [Example I-6] | 493 | –
27 | CCCS(=O)(=O)Nc1ccc(F)c(Nc2ncnc3cnc(N[C@H]4CC[C@H](N5CCOCC5)CC4)nc23)c1F [Example I-16] | 1030 | –
28 | CCCS(=O)(=O)Nc1ccc(F)c(Nc2ncnc3cnc(N4CCC5(CCN(C)CC5)CC4)nc23)c1F [Example I-21] | 440 | –
29 | CCCS(=O)(=O)Nc1ccc(F)c(Nc2ncnc3cnc(-n4cccn4)nc23)c1F [Example I-31] | 936 | –
30 | CCCS(=O)(=O)Nc1ccc(F)c(Nc2ncnc3cnc(NC4CCN(C)CC4)nc23)c1F [Example I-13] | 1480 | –
31 | CCCS(=O)(=O)Nc1ccc(F)c(Nc2ncnc3cnc(N4CCN(C5CCN(C)CC5)CC4)nc23)c1F [Example I-11] | 1070 | –
32 | CCCS(=O)(=O)Nc1ccc(F)c(Nc2ncnc3cnc(-n4cnc(C)c4)nc23)c1F [Example I-1] | 276 | –
33 | CCCS(=O)(=O)Nc1ccc(F)c(Nc2ncnc3cnc(NC4CC(N5CCN(C)CC5)C4)nc23)c1F (stereo not drawn) [Example I-10] | 1270 | –

— US20130023531A1, “PYRIMIDO[5,4-D]PYRIMIDYLAMINO PHENYL SULFONAMIDES AS SERINE/THREONINE KINASE INHIBITORS” (BOEHRINGER INGELHEIM INTERNATIONAL GMBH, priority 2011, published 2013)
